Laboratory results from patent US20250255981A1, “IMMUNOMODULATORY ANTIBODY-DRUG CONJUGATES” (Seagen Inc., priority 2022, published 2025).
In brackets after ≈: the same amount, converted by molar mass.

Tested on: THP1-Dual™ cells (IRF-Lucia luciferase reporter)
Test: THP1-Dual™ cell reporter assay
Assay type: cell-based, human
Conditions: ADC: drug linker conjugated to targeted mAb, 48 h; some values average of multiple experiments
Experimental: Potency of compounds and ADCs was evaluated using the THP1-Dual™ cells (Invivogen PN: thpd-nfis [also referred to as THP1 dual reporter cells]), which contain an IRF-Lucia luciferase reporter. Cells were cultured in RPMI-1640 (Gibco) with 10% heat-inactivated fetal bovine serum, Pen-Strep (100 U/mL-100 […], Gibco), HEPES (10 mM, Gibco)), sodium pyruvate (1 mM, Gibco), MEM non-essential amino acids (1×, Gibco), GlutaMAX (1×, Gibco), and beta-mercaptoethanol (55 μM, Gibco). Cells were plated in a 96-well flat bottom tissue culture-treated clear polystyrene plate (Corning Costar #3596) at ˜100,000 cells per well in 200 μL with the indicated concentration of the compound or ADC. The supernatant was harvested at 24 hours (compounds) or 48 hours (ADC) post plating for the reporter assay, or as indicated. To measure Lucia reporter signal, 10 µL of the supernatant was combined with 40 µL of QUANTI-Luc™ Luminescence assay reagent (Invivogen PN: rep-qlc1) in a 96-well clear flat bottom tissue culture-treated black polystyrene plate (Corning Costar #3603) and read on a Perkin Elmer Envision plate reader.

Compound | EC50, Lucia reporter signal
CCn1nc(C)cc1C(=O)Nc1nc2cc(C(N)=O)cc(OC)c2n1C/C=C/Cn1c(NC(=O)c2cc(C)nn2C)nc2cc(C(N)=O)cc(OCCCN(C)C(=O)CCN3C(=O)C=CC3=O)c21 [compound 105] | 52.5 ng/mL (≈ 56.4 nM)
CCc1oc(C)cc1C(=O)Nc1nc2cc(C(N)=O)cc(OCCCN(C)C(=O)CCN3C(=O)C=CC3=O)c2n1C/C=C/Cn1c(NC(=O)c2cc(C)nn2CC)nc2cc(C(N)=O)cc(OC)c21 [compound 106] | >10,000 ng/mL
CCn1nc(C)cc1C(=O)Nc1nc2cc(C(N)=O)cc(OC)c2n1C/C=C/Cn1c(NC(=O)c2cc(C)sn2)nc2cc(C(N)=O)cc(OCCCN(C)C(=O)CCN3C(=O)C=CC3=O)c21 [compound 107] | >10,000 ng/mL
CCn1nc(C)cc1C(=O)Nc1nc2cc(C(N)=O)cc(OC)c2n1C/C=C/Cn1c(NC(=O)c2ccnn2CC)nc2cc(C(N)=O)cc(OCCCN(C)C(=O)CCN3C(=O)C=CC3=O)c21 [compound 108] | 63.5 ng/mL (≈ 68.2 nM)
CCn1nc(C)cc1C(=O)Nc1nc2cc(C(N)=O)cc(OC)c2n1C/C=C/Cn1c(NC(=O)c2cc(C(F)(F)F)nn2CC)nc2cc(C(N)=O)cc(OCCCN(C)C(=O)CCN3C(=O)C=CC3=O)c21 [compound 109] | >10,000 ng/mL
CCn1nc(C)cc1C(=O)Nc1nc2cc(C(N)=O)cc(OC)c2n1C/C=C/Cn1c(NC(=O)c2c(C)cnn2C)nc2cc(C(N)=O)cc(OCCCN(C)C(=O)CCN3C(=O)C=CC3=O)c21 [compound 110] | >10,000 ng/mL
CCc1nc(C)sc1C(=O)Nc1nc2cc(C(N)=O)cc(OCCCN(C)C(=O)CCN3C(=O)C=CC3=O)c2n1C/C=C/Cn1c(NC(=O)c2cc(C)nn2CC)nc2cc(C(N)=O)cc(OC)c21 [compound 111] | 13.2 ng/mL (≈ 13.7 nM)
CCc1nc(C)oc1C(=O)Nc1nc2cc(C(N)=O)cc(OCCCN(C)C(=O)CCN3C(=O)C=CC3=O)c2n1C/C=C/Cn1c(NC(=O)c2cc(C)nn2CC)nc2cc(C(N)=O)cc(OC)c21 [compound 112] | 2 ng/mL (≈ 2.11 nM)
CCn1nc(C)cc1C(=O)Nc1nc2cc(C(N)=O)cc(OC)c2n1C/C=C/Cn1c(NC(=O)c2cc(C)nn2CC)nc2cc(C(N)=O)cc(OCCCN(C)C(=O)[C@H](CC(C)C)NC(=O)CCN3C(=O)C=CC3=O)c21 [compound 121] | 3.0 ng/mL (≈ 2.84 nM)
CCn1nc(C)cc1C(=O)Nc1nc2cc(C(N)=O)cc(OC)c2n1C/C=C/Cn1c(NC(=O)c2cc(C)nn2CC)nc2cc(C(N)=O)cc(OCCCN(C)C(=O)[C@H](Cc3ccccc3)NC(=O)CCN3C(=O)C=CC3=O)c21 [compound 122] | 5.6 ng/mL (≈ 5.13 nM)
CCn1nc(C)cc1C(=O)Nc1nc2cc(C(N)=O)cc(OC)c2n1C/C=C/Cn1c(NC(=O)c2cc(C)nn2CC)nc2cc(C(N)=O)cc(OCCCN(C)C(=O)[C@H](CCC(=O)OC)NC(=O)CCN3C(=O)C=CC3=O)c21 [compound 123] | 1.6 ng/mL (≈ 1.47 nM)
CCn1nc(C)cc1C(=O)Nc1nc2cc(C(N)=O)cc(OC)c2n1C/C=C/Cn1c(NC(=O)c2cc(C)nn2CC)nc2cc(C(N)=O)cc(OCCCN(C)C(=O)[C@H](Cc3ccc(OC)cc3)NC(=O)CCN3C(=O)C=CC3=O)c21 [compound 124] | 9.1 ng/mL (≈ 8.11 nM)
CCn1nc(C)cc1C(=O)Nc1nc2cc(C(N)=O)cc(OC)c2n1C/C=C/Cn1c(NC(=O)c2cc(C)nn2CC)nc2cc(C(N)=O)cc(OCCCN(C)C(=O)[C@@H](NC(=O)CCN3C(=O)C=CC3=O)[C@@H](C)OC)c21 [compound 125] | 1.4 ng/mL (≈ 1.32 nM)
CCn1nc(C)cc1C(=O)Nc1nc2cc(C(=O)O)cc(OC)c2n1C/C=C/Cn1c(NC(=O)c2cc(C)nn2CC)nc2cc(C(N)=O)cc(OCCCN(C)C(=O)CCN3C(=O)C=CC3=O)c21 [compound 126, (E)-1-(4-(5-carbamoyl-7-(3-(3-(2,5-dioxo-2,5-dihydro-1H-pyrrol-1-yl)-N-methylpropanamido)propoxy)-2-(1-ethyl-3-methyl-1H-pyrazole-5-carboxamido)-1H-benzo[d]imidazol-1-yl)but-2-en-1-yl)-2-(1-ethyl-3-methyl-1H-pyrazole-5-carboxamido)-7-methoxy-1H-benzo[d]imidazole-5-carboxylic acid] | >10,000 ng/mL
CCn1nc(C)cc1C(=O)Nc1nc2cc(S(=O)(=O)NC)ccc2n1C/C=C/Cn1c(NC(=O)c2cc(C)nn2CC)nc2cc(C(N)=O)cc(OCCCN(C)C(=O)CCN3C(=O)C=CC3=O)c21 [compound 128, (E)-7-(3-(3-(2,5-dioxo-2,5-dihydro-1H-pyrrol-1-yl)-N-methylpropanamido)propoxy)-2-(1-ethyl-3-methyl-H-pyrazole-5-carboxamido)-1-(4-(2-(1-ethyl-3-methyl-1H-pyrazole-5-carboxamido)-5-(N-methylsulfamoyl)-1H-benzo[d]imidazol-1-yl)but-2-en-1-yl)-1H-benzo[d]imidazole-5-carboxamide] | >10,000 ng/mL
CCn1nc(C)cc1C(=O)Nc1nc2cc(C(N)=O)cc(OC)c2n1C/C=C/Cn1c(NC(=O)c2cc(C)nn2CC)nc2cc(C(N)=O)cc(OCCCN(C(=O)CCN3C(=O)C=CC3=O)C3CC3)c21 [compound 133, (E)-1-(4-(5-carbamoyl-2-(1-ethyl-3-methyl-1H-pyrazole-5-carboxamido)-7-methoxy-1H-benzo[d]imidazol-1-yl)but-2-en-1-yl)-7-(3-(N-cyclopropyl-3-(2,5-dioxo-2,5-dihydro-1H-pyrrol-1-yl)propanamido)propoxy)-2-(1-ethyl-3-methyl-1H-pyrazole-5-carboxamido)-1H-benzo[d]imidazole-5-carboxamide] | 12.2 ng/mL (≈ 12.6 nM)
CCn1nc(C)cc1C(=O)Nc1nc2cc(C(N)=O)cc(OC)c2n1C/C=C/Cn1c(NC(=O)c2cc(C)nn2CC)nc2cc(C(N)=O)cc(OCCC[N+](C)(C)Cc3ccc(O[C@@H]4O[C@H](C(=O)O)[C@@H](O)[C@H](O)[C@H]4O)cc3NC(=O)CCNC(=O)CCN3C(=O)C=CC3=O)c21.O=C([O-])C(F)(F)F [compound 134] | 10.3 ng/mL
CCn1nc(C)cc1C(=O)Nc1nc2cc(S(N)(=O)=O)ccc2n1C/C=C/Cn1c(NC(=O)c2cc(C)nn2CC)nc2cc(C(N)=O)cc(OCCCOC3CN(C(=O)CCN4C(=O)C=CC4=O)C3)c21 [compound 146, (E)-7-(3-((1-(3-(2,5-dioxo-2,5-dihydro-1H-pyrrol-1-yl)propanoyl)azetidin-3-yl)oxy)propoxy)-2-(1-ethyl-3-methyl-1H-pyrazole-5-carboxamido)-1-(4-(2-(1-ethyl-3-methyl-1H-pyrazole-5-carboxamido)-5-sulfamoyl-1H-benzo[d]imidazol-1-yl)but-2-en-1-yl)-1H-benzo[d]imidazole-5-carboxamide] | >10,000 ng/mL
CCn1nc(C)cc1C(=O)Nc1nc2cc(S(N)(=O)=O)ccc2n1C/C=C/Cn1c(NC(=O)c2cc(C)nn2C)nc2cc(C(N)=O)cc(OCCCOC3CN(C(=O)CCN4C(=O)C=CC4=O)C3)c21 [compound 147, (E)-2-(1,3-dimethyl-1H-pyrazole-5-carboxamido)-7-(3-((1-(3-(2,5-dioxo-2,5-dihydro-1H-pyrrol-1-yl)propanoyl)azetidin-3-yl)oxy)propoxy)-1-(4-(2-(1-ethyl-3-methyl-1H-pyrazole-5-carboxamido)-5-sulfamoyl-1H-benzo[d]imidazol-1-yl)but-2-en-1-yl)-1H-benzo[d]imidazole-5-carboxamide] | >10,000 ng/mL
CCn1nc(C)cc1C(=O)Nc1nc2cc(S(N)(=O)=O)ccc2n1C/C=C/Cn1c(NC(=O)c2cc(C)nn2C)nc2cc(C(N)=O)cc(OCCCN(C)C(=O)CCN3C(=O)C=CC3=O)c21 [compound 148, (E)-2-(1,3-dimethyl-1H-pyrazole-5-carboxamido)-7-(3-(3-(2,5-dioxo-2,5-dihydro-1H-pyrrol-1-yl)-N-methylpropanamido)propoxy)-1-(4-(2-(1-ethyl-3-methyl-1H-pyrazole-5-carboxamido)-5-sulfamoyl-1H-benzo[d]imidazol-1-yl)but-2-en-1-yl)-1H-benzo[d]imidazole-5-carboxamide] | >10,000 ng/mL
CCn1nc(C)cc1C(=O)Nc1nc2cc(C(N)=O)cc(OC)c2n1C/C=C/Cn1c(NC(=O)c2cc(C)nn2C)nc2cc(C(N)=O)cc(OCCC3CN(C(=O)CCN4C(=O)C=CC4=O)C3)c21 [compound 149, (E)-1-(4-(5-carbamoyl-2-(1,3-dimethyl-1H-pyrazole-5-carboxamido)-7-(2-(1-(3-(2,5-dioxo-2,5-dihydro-1H-pyrrol-1-yl)propanoyl)azetidin-3-yl)ethoxy)-1H-benzo[d]imidazol-1-yl)but-2-en-1-yl)-2-(1-ethyl-3-methyl-1H-pyrazole-5-carboxamido)-7-methoxy-1H-benzo[d]imidazole-5-carboxamide] | >10,000 ng/mL
